Data reported in patent US4939134A, “26-aminocholesterol and derivatives and analogs thereof in the regulation of cholesterol accumulation in body tissue” (New York University, priority 1988, dated 1990).

Key:
[1] = tested on: Human Fibroblasts; test: Total cell cholesterol and percent esterified cholesterol in human fibroblasts; format: cell-based; conditions: 96 h, n = 3
Experimental: Normal LDLR(+) human fibroblasts (GM3440) were obtained from the National Institute of General Medical Sciences Human Genetic Cell Repository. Stock fibroblast monolayers were maintained in T-75 disposable Nunc flasks, in a medium comprising 10 ml of MEM (Eagle's Minimum Essential Medium with Earl's salts, pH 7.4) supplemented with 10% (v/v) fetal bovine serum (FBS), 2% (v/v) non-essential and essential amino acids, 1% (v/v) MEM vitamins, 1% L-glutamine (292 ug/ml), 1% penicillin (100 U/ml)-streptomycin (100 ug/ml). The fibroblast stock was maintained at 37° C. in a humidified atmosphere of 5% CO2 and 95% air.
For experiments using fibroblasts, confluent stock cultures (5-18 passages) were washed once with Dulbecco's PBS (phosphate buffered saline) prior to the addition of 3 ml aliquots of experimental MEM containing 25% (v/v) D2 O, 9% (v/v) dilapidated FBS, 1% FBS (v/v), 1% MEM vitamins and L-glutamine, and 2% of essential and non-essential amino acids and 20 mM HEPES buffer.
(§1) The fibroblast and hepatoblastoma cells were cultured in media containing 25% D2 O and 1% FBS in order to determine de novo cholesterol synthesis under conditions that permit receptor mediated cholesterol transport, according to the method of Easterman & Javitt et al., J. Lipid Res., 26: 950-954 (1985). Dish cultures of each cell type were prepared, and 26-aminocholesterol, dissolved in N,N-dimethylformamide (DMF, 9 ul per dish, 0.3% v/v) was added to each culture. The cells were then grown to confluence (96 hours, day 5). […] Duplicate or triplicate dishes containing 9 ul of DMF, but without 26-aminocholesterol, were used as controls.
After 96 hours of incubation, medium was removed from the cell cultures, and the cells were washed with Dulbecco's PBS and were harvested with 0.05% trypsin - 0.02% EDTA. The protease was deactivated with an equivolume aliquot of soybean trypsin inhibitor, and the resulting cell suspension was centrifuged for 5 minutes at 500xg. An internal standard of 5B-cholestan-3B-ol was added to the pellets prior to extraction with an 8:4:3 chloroform:methanol:water Folch mixture, as described in Folch et al., J. Biol. Chem., 266: 497-509 (1957). An aliquot of the extract was blown to dryness under nitrogen and silylated with 2:1:1 MSTFA (a sylated reagent supplied by Pierce Co.): toluene:-pyridine. Free cholesterol was determined by gas-liquid chromatography (GLC) on a Perkin-Elmer capillary gas-liquid chromatography model 8320 fitted with a 20 m DE-1 methylsilicon glass column (Supelco). The remaining extract was dried and saponified with 2% ethanolic KOH at 80° C. for one hour. The […] was then re-extracted and total cholesterol was measured by GLC after silylation. Cholesterol ester was calculated as the difference between the total and free cholesterol determinations. Newly synthesized cholesterol was determined by GLC-MS isotope mass ratios, using a Hewlett-Packard GC-MS spectrometer model 5890 fitted with DB-1 methyl silicon 0.18 i.d. 20 m glass column (Supelco), according to the method of J. Lipid. Res., 26: 950-954, supra. […]

[2] = tested on: HepG2 Cells; test: Total cell cholesterol in HepG2 hepatocytes; format: cell-based, human; conditions: 96 h, n = 3
Description: HepG2 cells were obtained from Dr. Barbara Knowles of the Wistar Institute, Pennsylvania. The HepG2 stock monolayers were maintained under the same conditions as the fibroblast monolayers, in a medium comprising MEM supplemented with 10% heat-inactivated FBS, and 1% (v/v) each of penicillin-streptomycin solution, non-essential and essential amino acids, and L-glutamine.
For experiments using HepG2 cells, confluent stock monolayers were washed once with Dulbecco's PBS, dissociated with 0.05-0.02% trypsin-EDTA followed by treatment with deoxyribonuclease I (0.1%), and were seeded (3.0×10^6) under identical conditions. The experimental MEM contained 25% (v/v) D2 O, 9% (v/v) delipidated FBS, and 1% (v/v) each of heat-inactivated FBS, penicillin-streptomycin, essential and non-essential amino acids, L-glutamine and 20 mM HEPES.
as §1
After 96 hours of incubation, medium was removed from the cell cultures, and the cells were washed with Dulbecco's PBS and were harvested with 0.05% trypsin - 0.02% EDTA. The protease was deactivated with an equivolume aliquot of soybean trypsin inhibitor, and the resulting cell suspension was centrifuged for 5 minutes at 500xg. An internal standard of 5B-cholestan-3B-ol was added to the pellets prior to extraction with an 8:4:3 chloroform:methanol:water Folch mixture, as described in Folch et al., J. Biol. Chem., 266: 497-509 (1957). An aliquot of the extract was blown to dryness under nitrogen and silylated with 2:1:1 MSTFA (a sylated reagent supplied by Pierce Co.): toluene:-pyridine. Free cholesterol was determined by gas-liquid chromatography (GLC) on a Perkin-Elmer capillary gas-liquid chromatography model 8320 fitted with a 20 m DE-1 methylsilicon glass column (Supelco). The remaining extract was dried and saponified with 2% ethanolic KOH at 80° C. for one hour. The […] was then re-extracted and total cholesterol was measured by GLC after silylation. Cholesterol ester was calculated as the difference between the total and free cholesterol determinations. Newly synthesized cholesterol was determined by GLC-MS isotope mass ratios, using a Hewlett-Packard GC-MS spectrometer model 5890 fitted with DB-1 methyl silicon 0.18 i.d. 20 m glass column (Supelco), according to the method of J. Lipid. Res., 26: 950-954, supra.
For purposes of comparison, ^125 I-LDL and cholesterol assays were also conducted in cultures prepared according to the above methods, but incubated with 26-hydroxycholesterol in one set of experiments and with the sterol 26-thiacholesterol in another set of experiments. These sterols were obtained according to known methods, similar to those described above for 26-aminocholesterol.

Compound	% ESTER (Percent Esterified Cholesterol) ([1]; 0.625 uM)	TOTAL CHOLESTEROL ([1]; 0.625 uM)	TOTAL CHOLESTEROL ([2]; 0.625 uM)	% ESTER (Percent Esterified Cholesterol) ([1]; 5.0 uM)	TOTAL CHOLESTEROL ([1]; 5.0 uM)	% ESTER (Percent Esterified Cholesterol) ([1]; 10.0 uM)	TOTAL CHOLESTEROL ([1]; 10.0 uM)	% ESTER (Percent Esterified Cholesterol) ([1]; 20.0 uM)	TOTAL CHOLESTEROL ([1]; 20.0 uM)	TOTAL CHOLESTEROL ([2]; 5.0 uM)	TOTAL CHOLESTEROL ([2]; 10.0 uM)	TOTAL CHOLESTEROL ([2]; 20.0 uM)	% ESTER (Percent Esterified Cholesterol) ([1]; 0.156 uM)	TOTAL CHOLESTEROL ([1]; 0.156 uM)	% ESTER (Percent Esterified Cholesterol) ([1]; 0.312 uM)	TOTAL CHOLESTEROL ([1]; 0.312 uM)	TOTAL CHOLESTEROL ([2]; 0.156 uM)	TOTAL CHOLESTEROL ([2]; 0.312 uM)
CC(CO)CCC[C@@H](C)[C@H]1CC[C@H]2[C@@H]3CC=C4C[C@@H](O)CC[C@]4(C)[C@H]3CC[C@]12C (stereo partly drawn) [26-OH, 26-hydroxycholesterol]	28.7%	24.7 +/- 2.8 ug cholesterol per mg cell pro	24.7 +/- 2.8 ug cholesterol per mg cell pro	–	–	–	–	–	–	–	–	–	–	–	–	–	–	–
CC(CS)CCC[C@@H](C)[C@H]1CC[C@H]2[C@@H]3CC=C4C[C@@H](O)CC[C@]4(C)[C@H]3CC[C@]12C (stereo partly drawn) [26-SH]	–	–	–	13.6%	26.0 +/- 1.7 ug cholesterol per mg cell pro	31.1%	31.3 + /- 4.5 ug cholesterol per mg cell pro	33.1%	26.1 +/- 1.0 ug cholesterol per mg cell pro	25.5 +/- 4.3 ug cholesterol per mg cell pro	27.4 +/- 4.0 ug cholesterol per mg cell pro	23.2 +/- 1.2 ug cholesterol per mg cell pro	–	–	–	–	–	–
C[C@@H](CN)CCC[C@@H](C)[C@H]1CC[C@H]2[C@@H]3CC=C4C[C@@H](O)CC[C@]4(C)[C@H]3CC[C@]12C [26-NH2, 26-aminocholesterol]	6.4%	20.3 +/- 6.4 ug cholesterol per mg cell pro	28.8 +/- 1.8 ug cholesterol per mg cell pro	–	–	–	–	–	–	–	–	–	26.4%	27.9 +/- 5.3 ug cholesterol per mg cell pro	18.6%	31.5 +/- 6.1 ug cholesterol per mg cell pro	30.6 +/- 3.7 ug cholesterol per mg cell pro	25.0 +/- 0.6 ug cholesterol per mg cell pro
